Laboratory results reported in patent publication US20090203577A1 (EXELIXIS, INC., priority 2005, published 2009).
Where two headings read alike, the source gives them in different places.

Target: T1, human farnesoid X receptor (Homo sapiens, UniProt Q96RI1)
T1 construct: CMX-farnesoid X receptor (full length human farnesoid X receptor); expressed in transfected cells; host or cells: CV-1 African Green Monkey Kidney cells
T1 sequence (Q96RI1 1-472 isoform Q96RI1-2): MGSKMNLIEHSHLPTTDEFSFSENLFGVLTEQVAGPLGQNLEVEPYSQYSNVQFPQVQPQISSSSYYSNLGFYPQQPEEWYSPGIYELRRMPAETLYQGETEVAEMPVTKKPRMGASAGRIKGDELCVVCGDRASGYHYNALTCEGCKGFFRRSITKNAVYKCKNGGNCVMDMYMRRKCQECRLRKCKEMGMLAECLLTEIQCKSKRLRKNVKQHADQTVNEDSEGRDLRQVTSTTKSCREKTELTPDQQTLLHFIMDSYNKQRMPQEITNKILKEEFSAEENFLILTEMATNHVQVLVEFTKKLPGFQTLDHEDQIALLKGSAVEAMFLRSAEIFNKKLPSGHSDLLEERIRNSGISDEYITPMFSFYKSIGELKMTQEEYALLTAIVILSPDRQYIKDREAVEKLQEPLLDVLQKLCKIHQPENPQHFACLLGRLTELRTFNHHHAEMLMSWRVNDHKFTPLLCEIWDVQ
T1 sequence (P19793 1-462 partner): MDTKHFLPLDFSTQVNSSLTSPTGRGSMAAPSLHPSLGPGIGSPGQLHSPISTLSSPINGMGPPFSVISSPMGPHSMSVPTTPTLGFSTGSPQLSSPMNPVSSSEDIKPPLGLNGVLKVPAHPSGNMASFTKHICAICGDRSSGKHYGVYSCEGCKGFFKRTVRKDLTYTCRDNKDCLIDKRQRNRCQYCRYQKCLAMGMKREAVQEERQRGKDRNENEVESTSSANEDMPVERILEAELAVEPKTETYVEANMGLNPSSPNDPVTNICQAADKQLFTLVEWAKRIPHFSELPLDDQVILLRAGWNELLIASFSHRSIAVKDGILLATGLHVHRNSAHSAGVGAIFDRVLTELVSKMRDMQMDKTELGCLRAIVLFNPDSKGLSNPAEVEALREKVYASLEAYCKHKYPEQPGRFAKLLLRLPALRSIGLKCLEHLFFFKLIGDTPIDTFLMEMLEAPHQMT
Experiment: FXR in vitro assays (farnesoid X receptor/ECREx7 co-transfection assay, TR-FRET assay), Table I
Type: cell-based
Conditions: for Emax: read-out: % Efficacy
Description: The basic co-transfection protocol for measuring the farnesoid X receptor activity is as follows. CV-1 African Green Monkey Kidney cells were plated 24 hours before transfection to achieve approximately 70-80 percent confluency. […] The assay was allowed to continue for an additional 18-20 hours, after which the cells were lysed, with lysis buffer (1% triton X 100, 10% glycerol, 5 mM Dithiothreitol, 1 mM EGTA, 25 mM Tricine, pH 7.8) and the luciferase activity measured in the presence of Luciferase assay buffer (0.73 mM ATP, 22.3 mm Tricine, 0.11 mM EGTA, 0.55 mM Luciferin, 0.15 mM Coenzyme A, 0.5 mM HEPES, 10 mM Magnesium sulphatc) on a standard luminometer plate reader (PE Biosystems, NorthStar Reader), using recommended operating instructions and conditions.
The dose response curves are generated from an 8 point curve with concentrations differing by ½ LOG units. Each point represents the average of 4 wells of data from a 384 well plate. A curve for the data is generated by using the equation:
Y=Bottom+(Top−Bottom)/(1+10̂((Log EC50−X)*HillSlope))
The EC50/IC50 is therefore defined as the concentration at which an agonist or antagonist elicits a response that is half way between the Top (maximum) and Bottom (baseline) values. The EC50/IC50 values represented are the averages of at least 3 independent experiments.

[1] = agonist activity, one or more of the in vitro assays, read-out: EC50

Question: How did the EC50 [1] turn out when CC(C)OC(=O)C1=CN(C(=O)c2ccc(CN(C)C)cc2)CC(C)(C)c2c1[nH]c1ccccc21 [Example 107, 1-methylethyl 3-({4-[(dimethylamino)methyl]phenyl}carbonyl)-1,1-dimethyl-1,2,3,6-tetrahydroazepino[4,5-b]indole-5-carboxylate] was run?
Answer: 1000 to 10000 nM

Question: And the Emax?
Answer: > 100%

Question: CC(C)OC(=O)C1=CN(C(=O)c2cccc(CN(C)C)c2)CC(C)(C)c2c1[nH]c1ccccc21 [Example 108, 1-methylethyl 3-({3-[(dimethylamino)methyl]phenyl}-carbonyl)-1,1-dimethyl-1,2,3,6-tetrahydroazepino[4,5-b]indole-5-carboxylate] was tested. Which EC50 [1] did it give?
Answer: 100 to 1000 nM

Question: What about the Emax of the same molecule?
Answer: > 100%

Question: Cc1cc(C(=O)N2C=C(C(=O)OC(C)C)c3[nH]c4ccccc4c3C(C)(C)C2)no1 [Example 109, 1-methylethyl 1,1-dimethyl-3-[(5-methylisoxazol-3-yl)carbonyl]-1,2,3,6-tetrahydroazepino[4,5-b]indole-5-carboxylate] was tested. Which EC50 [1] did it give?
Answer: 100 to 1000 nM

Question: What about the Emax of the same molecule?
Answer: > 100%

Question: For CC(C)OC(=O)C1=CN(C(=O)c2ccc(F)cc2C(F)(F)F)CC(C)(C)c2c1[nH]c1ccccc21 [Example 110, 1-methylethyl 3-{[4-fluoro-2-(trifluoromethyl)phenyl]car-bonyl}-1,1-dimethyl-1,2,3,6-tetrahydroazepino[4,5-b]indole-5-carboxylate], which EC50 [1] is on record?
Answer: 10 to 100 nM

Question: What about the Emax of the same molecule?
Answer: > 100%

Question: Which EC50 [1] does the source give for CC(C)OC(=O)C1=CN(C(=O)c2ccc(F)cc2Cl)CC(C)(C)c2c1[nH]c1ccccc21 [Example 111, 1-methylethyl 3-[(2-chloro-4-fluorophenyl)carbonyl]-1,1-dimethyl-1,2,3,6-tetrahydroazepino[4,5-b]indole-5-carboxylate] here?
Answer: 10 to 100 nM

Question: What about the Emax of the same molecule?
Answer: > 100%

Question: Which results are given for CCN(CC)CCCNC(=O)Oc1ccc2c3c([nH]c2c1)C(C(=O)OC(C)C)=CN(C(=O)c1ccc(F)c(F)c1)CC3(C)C [Example 112, 1-methylethyl 8-[({[3-(diethylamino)propyl]amino}carbonyl)oxy]-3-[(3,4-difluorophenyl)carbonyl]-1,1-dimethyl-1,2,3,6-tetrahydroazepino[4,5-b]indole-5-carboxylate]?
Answer: EC50: 1000 to 10000 nM; Emax: > 100%

Question: Which EC50 [1] does the source give for CC(C)OC(=O)C1=CN(C(=O)c2cccc(CCl)c2)CC(C)(C)c2c1[nH]c1ccccc21 [Example 113, 1-methylethyl 3-{[3-(chloromethyl)phenyl]car-bonyl}-1,1-dimethyl-1,2,3,6-tetrahydroazepino[4,5-b]indole-5-carboxylate] here?
Answer: 10 to 100 nM

Question: And the Emax?
Answer: > 100%

Question: For CCN(CC)Cc1cccc(C(=O)N2C=C(C(=O)OC(C)C)c3[nH]c4ccccc4c3C(C)(C)C2)c1 [Example 114, 1-methylethyl 3-({3-[(diethylamino)methyl]phenyl}carbonyl)-1,1-dimethyl-1,2,3,6-tetrahydroazepino[4,5-b]indole-5-carboxylate], which EC50 [1] is on record?
Answer: 100 to 1000 nM

Question: What about the Emax of the same molecule?
Answer: > 100%

Question: What does the source list for CC(C)OC(=O)C1=CN(C(=O)c2ccc(F)c(F)c2)CC(C)(C)c2c1[nH]c1ccc(OCc3ccccc3)cc21 [Example 115, 1-methylethyl 3-[(3,4-difluorophenyl)carbonyl]-1,1-dimethyl-9-[(phenylmethyl)oxy]-1,2,3,6-tetrahydroazepino[4,5-b]indole-5-carboxylate]?
Answer: EC50 [1]: 10 to 100 nM; Emax: > 100%

Question: With CC(C)OC(=O)C1=CN(C(=O)c2cccc(CN3CCCC3)c2)CC(C)(C)c2c1[nH]c1ccccc21 [Example 117, 1-methylethyl 1,1-dimethyl-3-{[3-(pyrrolidin-1-ylmethyl)phenyl]carbonyl}-1,2,3,6-tetrahydroazepino[4,5-b]indole-5-carboxylate] as the molecule, how does the Emax read?
Answer: > 100%

Question: CCN1CCN(Cc2cccc(C(=O)N3C=C(C(=O)OC(C)C)c4[nH]c5ccccc5c4C(C)(C)C3)c2)CC1 [Example 120, 1-methylethyl 3-({3-[(4-ethylpiperazin-1-yl)methyl]phenyl}carbonyl)-1,1-dimethyl-1,2,3,6-tetrahydroazepino[4,5-b]indole-5-carboxylate] was tested. Which EC50 [1] did it give?
Answer: 100 to 1000 nM

Question: And the Emax?
Answer: > 100%

Question: With CC1(C)CN(C(=O)c2ccc(F)c(F)c2)C=C(C(=O)CCl)c2[nH]c3ccccc3c21 [Example 121, 2-chloro-1-{3-[(3,4-difluorophenyl)carbonyl]-1,1-dimethyl-1,2,3,6-tetrahydroazepino[4,5-b]indol-5-yl}ethanone] as the molecule, how does the EC50 [1] read?
Answer: 100 to 1000 nM

Question: What about the Emax of the same molecule?
Answer: < 40%

Question: CC1(C)OCC(COC(=O)C2=CN(C(=O)c3ccc(F)c(F)c3)CC(C)(C)c3c2[nH]c2ccccc32)O1 (stereo not shown) [Example 122, (2,2-dimethyl-1,3-dioxolan-4-yl)methyl 3-[(3,4-difluorophenyl)carbonyl]-1,1-dimethyl-1,2,3,6-tetrahydroazepino[4,5-b]indole-5-carboxylate] was tested. Which EC50 [1] did it give?
Answer: 100 to 1000 nM

Question: And the Emax?
Answer: > 100%

Question: With COC(=O)C1=CN(C(=O)c2ccc(F)c(F)c2)CC(C)(C)c2c1[nH]c1ccccc21 [Example 123, methyl 3-[(3,4-difluorophenyl)carbonyl]-1,1-dimethyl-1,2,3,6-tetrahydroazepino[4,5-b]indole-5-carboxylate] as the molecule, how does the EC50 [1] read?
Answer: 100 to 1000 nM

Question: What about the Emax of the same molecule?
Answer: > 100%

Question: Which results are given for CC1(C)CN(C(=O)c2ccc(F)c(F)c2)C=C(C(=O)OCC(O)CO)c2[nH]c3ccccc3c21 (stereo not shown) [Example 124, 2,3-dihydroxypropyl 3-[(3,4-difluorophenyl)carbonyl]-1,1-dimethyl-1,2,3,6-tetrahydroazepino[4,5-b]indole-5-carboxylate]?
Answer: EC50 [1]: 10 to 100 nM; Emax: > 100%

Question: With CC(C)OC(=O)C1=CN(C(=O)c2cccc(CN3CCOCC3)c2)CC(C)(C)c2c1[nH]c1ccccc21 [Example 125, 1-methylethyl 1,1-dimethyl-3-{[3-(morpholin-4-ylmethyl)phenyl]carbonyl}-1,2,3,6-tetrahydroazepino[4,5-b]indole-5-carboxylate] as the molecule, how does the Emax read?
Answer: > 100%

Question: Which EC50 does the source give for CC(C)OC(=O)C1=CN(C(=O)c2ccc(F)c(F)c2)CC(C)(C)c2c1[nH]c1cc(OC(=O)NCCN3CCCC3)ccc21 [Example 126, 1-methylethyl 3-[(3,4-difluorophenyl)carbonyl]-1,1-dimethyl-8-({[(2-pyrrolidin-1-ylethyl)amino]carbonyl}oxy)-1,2,3,6-tetrahydroazepino[4,5-b]indole-5-carboxylate] here?
Answer: 10 to 100 nM

Question: What about the Emax of the same molecule?
Answer: > 100%

Question: How did the EC50 [1] turn out when CC(C)OC(=O)C1=CN(C(=O)c2cccc(C(F)(F)F)c2)CC(C)(C)c2c1[nH]c1ccccc21 [Example 128, 1-methylethyl 1,1-dimethyl-3-{[3-(trifluoromethyl)phenyl]car-bonyl}-1,2,3,6-tetrahydroazepino[4,5-b]indole-carboxylate] was run?
Answer: 10 to 100 nM

Question: What about the Emax of the same molecule?
Answer: > 100%

Question: What does the source list for CC1(C)CN(C(=O)c2ccc(F)c(F)c2)C=C(C(=O)OC[C@H](O)CO)c2[nH]c3ccccc3c21 [Example 129, (2R)-2,3-dihydroxypropyl 3-[(3,4-difluorophenyl)carbonyl]-1,1-dimethyl-1,2,3,6-tetrahydroazepino[4,5-b]indole-5-carboxylate]?
Answer: EC50 [1]: 100 to 1000 nM; Emax: > 100%

Question: Which EC50 [1] does the source give for CC(C)OC(=O)C1=CN(C(=O)c2cccc(C(F)(F)F)c2F)CC(C)(C)c2c1[nH]c1ccccc21 [Example 133, 1-methylethyl 3-{[2-fluoro-3-(trifluoromethyl)phenyl]car-bonyl}-1,1-dimethyl-1,2,3,6-tetrahydroazepino[4,5-b]indole-5-carboxylate] here?
Answer: 10 to 100 nM

Question: And the Emax?
Answer: > 100%

Question: Which results are given for CC1(C)CN(C(=O)c2ccc(F)c(F)c2)C=C(C(=O)OC(CF)CF)c2[nH]c3ccccc3c21 [Example 136, 2-fluoro-1-(fluoromethyl)ethyl 3-[(3,4-difluorophenyl)carbonyl]-1,1-dimethyl-1,2,3,6-tetrahydroazepino[4,5-b]indole-5-carboxylate]?
Answer: EC50 [1]: 1 to 10 nM; Emax: > 100%
